# Assays:
# Experiment in all cases: KinomeScan
# Type in all cases: binding
# Conditions in all cases: 1uM
# PIK3CA(E545K) = biological target: T1, PIK3CA(E545K) (Homo sapiens, UniProt P42336, E545K)
# T1 construct: purchased DiscoveRx KINOMEscan
# MELK = biological target: T2, MELK (Homo sapiens, UniProt Q14680)
# T2 construct: purchased DiscoveRx KINOMEscan
# ITK = biological target: T3, ITK (Homo sapiens, UniProt Q08881)
# T3 construct: purchased DiscoveRx KINOMEscan
# [1] = biological target: T4, RPS6KA5(Kin.Dom.1-N-terminal) (Homo sapiens, UniProt O75582)
# T4 construct: RPS6KA5(Kin.Dom.1-N-terminal); purchased DiscoveRx KINOMEscan
# [2] = biological target: T5, RSK2(Kin.Dom.1-N-terminal) (Homo sapiens, UniProt P51812)
# T5 construct: RSK2(Kin.Dom.1-N-terminal); purchased DiscoveRx KINOMEscan
# RAF1 = biological target: T6, RAF1 (Homo sapiens, UniProt P04049)
# T6 construct: purchased DiscoveRx KINOMEscan
# TXK = biological target: T7, TXK (Homo sapiens, UniProt P42681)
# T7 construct: purchased DiscoveRx KINOMEscan
# CTK = biological target: T8, CTK (Homo sapiens, UniProt P42679)
# T8 construct: purchased DiscoveRx KINOMEscan
# T8 sequence (P42679 whole entry): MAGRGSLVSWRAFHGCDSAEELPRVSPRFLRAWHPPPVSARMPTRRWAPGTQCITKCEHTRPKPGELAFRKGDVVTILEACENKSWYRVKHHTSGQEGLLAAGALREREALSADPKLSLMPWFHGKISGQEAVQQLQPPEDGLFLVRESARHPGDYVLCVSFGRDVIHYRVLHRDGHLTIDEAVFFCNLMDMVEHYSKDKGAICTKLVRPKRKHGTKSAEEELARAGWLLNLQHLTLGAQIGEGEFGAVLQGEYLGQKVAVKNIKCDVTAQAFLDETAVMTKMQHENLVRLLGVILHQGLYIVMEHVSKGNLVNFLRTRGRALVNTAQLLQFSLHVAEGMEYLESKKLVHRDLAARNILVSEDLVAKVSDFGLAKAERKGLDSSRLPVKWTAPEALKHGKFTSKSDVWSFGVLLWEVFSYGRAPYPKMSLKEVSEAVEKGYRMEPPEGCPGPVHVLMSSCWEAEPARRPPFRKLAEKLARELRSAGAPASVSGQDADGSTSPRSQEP
# ARK5 = biological target: T9, ARK5 (Homo sapiens, UniProt O60285)
# T9 construct: purchased DiscoveRx KINOMEscan
# T9 sequence (O60285 whole entry): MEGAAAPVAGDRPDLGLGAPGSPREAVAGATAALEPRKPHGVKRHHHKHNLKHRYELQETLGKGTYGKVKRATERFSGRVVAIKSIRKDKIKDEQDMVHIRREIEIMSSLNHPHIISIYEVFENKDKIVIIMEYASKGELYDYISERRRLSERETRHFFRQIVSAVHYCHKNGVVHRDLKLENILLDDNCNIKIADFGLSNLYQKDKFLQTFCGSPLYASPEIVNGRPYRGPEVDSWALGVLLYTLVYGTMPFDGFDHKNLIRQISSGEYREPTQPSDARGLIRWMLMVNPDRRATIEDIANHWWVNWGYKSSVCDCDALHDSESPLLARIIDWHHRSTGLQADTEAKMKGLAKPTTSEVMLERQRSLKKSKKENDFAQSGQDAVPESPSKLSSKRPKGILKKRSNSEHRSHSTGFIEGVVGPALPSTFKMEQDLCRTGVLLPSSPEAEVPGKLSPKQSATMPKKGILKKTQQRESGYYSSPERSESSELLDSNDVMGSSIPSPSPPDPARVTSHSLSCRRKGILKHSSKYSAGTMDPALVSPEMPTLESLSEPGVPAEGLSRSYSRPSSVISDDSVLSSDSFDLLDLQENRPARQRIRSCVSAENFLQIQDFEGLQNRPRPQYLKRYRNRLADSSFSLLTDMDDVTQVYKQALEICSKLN
# SRMS = biological target: T10, SRMS (Homo sapiens, UniProt Q9H3Y6)
# T10 construct: purchased DiscoveRx KINOMEscan
# T10 sequence (Q9H3Y6 whole entry): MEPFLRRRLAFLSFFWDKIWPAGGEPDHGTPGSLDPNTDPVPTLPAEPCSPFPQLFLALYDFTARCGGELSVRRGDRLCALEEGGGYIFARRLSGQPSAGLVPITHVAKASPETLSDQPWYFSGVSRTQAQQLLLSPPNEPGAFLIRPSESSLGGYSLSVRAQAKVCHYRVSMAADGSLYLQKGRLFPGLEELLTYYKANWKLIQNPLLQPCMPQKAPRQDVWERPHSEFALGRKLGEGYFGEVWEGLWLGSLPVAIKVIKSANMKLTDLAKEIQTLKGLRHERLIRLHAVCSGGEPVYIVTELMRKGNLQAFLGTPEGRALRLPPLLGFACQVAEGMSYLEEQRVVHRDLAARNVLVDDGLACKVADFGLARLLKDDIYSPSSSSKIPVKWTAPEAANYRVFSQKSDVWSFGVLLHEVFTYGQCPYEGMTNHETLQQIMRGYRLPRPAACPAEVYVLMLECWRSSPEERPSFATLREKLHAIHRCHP
# FLT3(D835Y) = biological target: T11, FLT3(D835Y) (Homo sapiens, UniProt P36888, D835Y)
# T11 construct: purchased DiscoveRx KINOMEscan
# HASPIN = biological target: T12, HASPIN (Homo sapiens, UniProt Q8TF76)
# T12 construct: purchased DiscoveRx KINOMEscan
# T12 sequence (Q8TF76 whole entry): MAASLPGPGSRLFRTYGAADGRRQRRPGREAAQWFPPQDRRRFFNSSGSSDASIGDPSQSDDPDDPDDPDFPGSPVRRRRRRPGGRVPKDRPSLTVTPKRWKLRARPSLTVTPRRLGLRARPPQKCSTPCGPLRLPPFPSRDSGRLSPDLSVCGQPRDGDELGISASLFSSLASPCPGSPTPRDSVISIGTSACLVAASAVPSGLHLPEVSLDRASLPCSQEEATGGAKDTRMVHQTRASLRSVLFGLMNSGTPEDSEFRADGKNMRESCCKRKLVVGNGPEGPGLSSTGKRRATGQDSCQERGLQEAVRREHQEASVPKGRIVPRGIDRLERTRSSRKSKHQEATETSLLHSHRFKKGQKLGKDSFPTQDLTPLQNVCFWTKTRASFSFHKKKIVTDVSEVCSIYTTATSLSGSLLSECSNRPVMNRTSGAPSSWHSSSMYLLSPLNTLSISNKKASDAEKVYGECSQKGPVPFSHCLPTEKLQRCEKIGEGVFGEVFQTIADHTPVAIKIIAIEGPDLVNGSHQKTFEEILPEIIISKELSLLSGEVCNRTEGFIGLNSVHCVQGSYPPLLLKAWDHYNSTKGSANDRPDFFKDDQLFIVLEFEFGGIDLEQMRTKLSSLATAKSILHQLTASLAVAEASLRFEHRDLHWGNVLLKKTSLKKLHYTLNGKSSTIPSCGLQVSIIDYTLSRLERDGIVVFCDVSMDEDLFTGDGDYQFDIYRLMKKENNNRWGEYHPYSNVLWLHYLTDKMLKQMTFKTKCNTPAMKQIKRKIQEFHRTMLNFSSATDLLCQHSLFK
# ERBB2 = biological target: T13, ERBB2 (Homo sapiens, UniProt P04626)
# T13 construct: purchased DiscoveRx KINOMEscan
# p38-beta = biological target: T14, p38-beta (Homo sapiens, UniProt Q15759)
# T14 construct: purchased DiscoveRx KINOMEscan
# T14 sequence (Q15759 whole entry): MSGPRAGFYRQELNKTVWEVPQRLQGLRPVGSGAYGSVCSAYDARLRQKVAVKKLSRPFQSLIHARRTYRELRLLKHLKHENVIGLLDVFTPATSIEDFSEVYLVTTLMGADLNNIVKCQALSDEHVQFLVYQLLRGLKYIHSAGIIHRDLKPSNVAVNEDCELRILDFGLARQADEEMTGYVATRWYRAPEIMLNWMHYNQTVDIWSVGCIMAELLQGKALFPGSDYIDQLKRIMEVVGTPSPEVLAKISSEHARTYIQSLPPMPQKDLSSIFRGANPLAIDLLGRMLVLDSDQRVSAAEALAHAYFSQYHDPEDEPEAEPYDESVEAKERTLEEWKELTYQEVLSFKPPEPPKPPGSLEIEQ
# OSR1 = biological target: T15, OSR1 (Homo sapiens, UniProt O95747)
# T15 construct: purchased DiscoveRx KINOMEscan
# TIE2 = biological target: T16, TIE2 (Homo sapiens, UniProt Q02763)
# T16 construct: purchased DiscoveRx KINOMEscan
# TESK1 = biological target: T17, TESK1 (Homo sapiens, UniProt Q15569)
# T17 construct: purchased DiscoveRx KINOMEscan
# T17 sequence (Q15569 whole entry): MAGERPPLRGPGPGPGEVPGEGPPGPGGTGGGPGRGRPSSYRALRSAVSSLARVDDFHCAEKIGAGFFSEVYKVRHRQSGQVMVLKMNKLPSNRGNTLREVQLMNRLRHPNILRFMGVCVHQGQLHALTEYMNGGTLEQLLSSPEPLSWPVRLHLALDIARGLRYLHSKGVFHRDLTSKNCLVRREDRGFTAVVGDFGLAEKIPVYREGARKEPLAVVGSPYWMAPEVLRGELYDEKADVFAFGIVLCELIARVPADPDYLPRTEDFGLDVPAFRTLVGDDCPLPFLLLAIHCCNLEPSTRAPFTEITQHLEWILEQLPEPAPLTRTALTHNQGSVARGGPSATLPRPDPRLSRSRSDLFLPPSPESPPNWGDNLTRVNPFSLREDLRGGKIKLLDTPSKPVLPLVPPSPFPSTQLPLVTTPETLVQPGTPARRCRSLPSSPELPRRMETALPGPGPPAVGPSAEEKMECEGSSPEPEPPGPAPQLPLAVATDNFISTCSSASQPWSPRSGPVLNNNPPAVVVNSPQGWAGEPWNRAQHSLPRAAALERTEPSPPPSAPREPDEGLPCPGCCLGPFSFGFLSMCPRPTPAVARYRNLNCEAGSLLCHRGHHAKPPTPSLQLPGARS
# PIK3CA(I800L) = biological target: T18, PIK3CA(I800L) (Homo sapiens, UniProt P42336, I800L)
# T18 construct: purchased DiscoveRx KINOMEscan
# ERK3 = biological target: T19, ERK3 (Homo sapiens, UniProt Q16659)
# T19 construct: purchased DiscoveRx KINOMEscan
# MYO3B = biological target: T20, MYO3B (Homo sapiens, UniProt Q8WXR4)
# T20 construct: purchased DiscoveRx KINOMEscan
# CSNK2A1 = biological target: T21, CSNK2A1 (Homo sapiens, UniProt P68400)
# T21 construct: purchased DiscoveRx KINOMEscan
# NEK9 = biological target: T22, NEK9 (Homo sapiens, UniProt Q8TD19)
# T22 construct: purchased DiscoveRx KINOMEscan
# [3] = biological target: T23, ABL1(H396P)-phosphorylated (Homo sapiens, UniProt P00519, H396P)
# T23 construct: purchased DiscoveRx KINOMEscan
# SGK = biological target: T24, SGK (Homo sapiens, UniProt O00141)
# T24 construct: purchased DiscoveRx KINOMEscan
# MET(Y1235D) = biological target: T25, MET(Y1235D) (Homo sapiens, UniProt P08581, Y1235D)
# T25 construct: purchased DiscoveRx KINOMEscan
# PIK3C2G = biological target: T26, PIK3C2G (Homo sapiens, UniProt O75747)
# T26 construct: purchased DiscoveRx KINOMEscan
# T2 sequence (Q14680 whole entry): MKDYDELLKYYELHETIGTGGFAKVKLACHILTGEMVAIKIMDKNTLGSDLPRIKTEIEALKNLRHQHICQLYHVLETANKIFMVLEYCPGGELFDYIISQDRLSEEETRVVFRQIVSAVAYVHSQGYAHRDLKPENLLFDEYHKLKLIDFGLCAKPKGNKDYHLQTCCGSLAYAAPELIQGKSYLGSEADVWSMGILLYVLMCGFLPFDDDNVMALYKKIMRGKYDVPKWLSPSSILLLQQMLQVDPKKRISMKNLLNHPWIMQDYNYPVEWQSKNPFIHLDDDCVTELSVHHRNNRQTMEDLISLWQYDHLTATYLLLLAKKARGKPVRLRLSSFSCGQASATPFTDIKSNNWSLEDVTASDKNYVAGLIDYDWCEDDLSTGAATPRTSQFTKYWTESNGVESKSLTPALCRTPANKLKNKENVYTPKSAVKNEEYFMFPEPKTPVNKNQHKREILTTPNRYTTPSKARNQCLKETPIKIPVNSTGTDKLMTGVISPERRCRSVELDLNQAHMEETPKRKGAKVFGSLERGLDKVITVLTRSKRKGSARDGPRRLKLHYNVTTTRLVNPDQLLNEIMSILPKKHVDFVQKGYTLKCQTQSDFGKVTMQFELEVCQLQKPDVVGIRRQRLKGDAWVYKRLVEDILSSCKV
# T3 sequence (Q08881 whole entry): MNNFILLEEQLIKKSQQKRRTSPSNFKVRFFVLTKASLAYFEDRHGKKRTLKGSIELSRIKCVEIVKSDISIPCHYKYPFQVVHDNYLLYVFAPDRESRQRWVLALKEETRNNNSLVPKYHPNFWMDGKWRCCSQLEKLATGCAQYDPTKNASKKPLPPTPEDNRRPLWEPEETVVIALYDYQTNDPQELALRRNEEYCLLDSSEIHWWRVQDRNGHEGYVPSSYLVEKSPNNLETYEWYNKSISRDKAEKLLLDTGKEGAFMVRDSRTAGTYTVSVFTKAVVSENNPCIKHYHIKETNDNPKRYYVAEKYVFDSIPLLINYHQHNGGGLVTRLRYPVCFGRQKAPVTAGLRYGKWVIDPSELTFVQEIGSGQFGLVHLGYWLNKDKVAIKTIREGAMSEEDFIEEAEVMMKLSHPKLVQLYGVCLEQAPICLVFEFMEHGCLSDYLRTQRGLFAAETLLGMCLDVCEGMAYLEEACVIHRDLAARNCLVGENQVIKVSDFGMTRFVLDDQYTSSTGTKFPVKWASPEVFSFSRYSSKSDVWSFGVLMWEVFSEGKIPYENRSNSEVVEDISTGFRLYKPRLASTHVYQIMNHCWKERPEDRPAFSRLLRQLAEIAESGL
structure (smiles),measurement,setting,value
Cc1nc(NC(=O)[C@@H](N)C(C)C)sc1-c1cnc(Cl)c(NS(=O)(=O)c2ccccc2)c1 [PI3KD-IN-015],KinomeScan PIK3CA(E545K),PIK3CA(E545K),6.4
same,KinomeScan MELK,MELK,90
same,KinomeScan ITK,ITK,100
same,KinomeScan RPS6KA5(Kin.Dom.1-N-terminal),[1],100
same,KinomeScan RSK2(Kin.Dom.1-N-terminal),[2],100
same,KinomeScan RAF1,RAF1,100
same,KinomeScan TXK,TXK,100
same,KinomeScan CTK,CTK,93
same,KinomeScan ARK5,ARK5,87
same,KinomeScan SRMS,SRMS,90
same,KinomeScan FLT3(D835Y),FLT3(D835Y),98
same,KinomeScan HASPIN,HASPIN,94
same,KinomeScan ERBB2,ERBB2,100
same,KinomeScan p38-beta,p38-beta,86
same,KinomeScan OSR1,OSR1,75
same,KinomeScan TIE2,TIE2,89
same,KinomeScan TESK1,TESK1,100
same,KinomeScan PIK3CA(I800L),PIK3CA(I800L),0.5
same,KinomeScan ERK3,ERK3,96
same,KinomeScan MYO3B,MYO3B,100
same,KinomeScan CSNK2A1,CSNK2A1,100
same,KinomeScan NEK9,NEK9,100
same,KinomeScan ABL1(H396P)-phosphorylated,[3],78
same,KinomeScan SGK,SGK,70
same,KinomeScan MET(Y1235D),MET(Y1235D),100
same,KinomeScan PIK3C2G,PIK3C2G,65

# Source: PMC5078040 (Oncotarget, 2016)
